In publication PMC6271011, “Synthesis, Leishmanicidal and Cytotoxic Activity of Triclosan-Chalcone, Triclosan-Chromone and Triclosan-Coumarin Hybrids” (Molecules, 2014):
Several values for one entry are separate records, joined by “and”; a condition that tells them apart may be missing. Equal values may be shown once. Read-outs that look alike come from different tables or passages of the source.

Key:
[1] = tested on: intracellular amastigotes of L. (V) panamensis; test: Leishmanicidal activity against intracellular amastigotes (GFP, flow cytometry, 72 h); format: cell-based, Leishmania (Viannia) panamensis; details: for inhibition at 20 µg/mL: read-out: Leishmanicidal activity % Inhibition; for EC50: intracellular amastigotes in U-937 cells
[2] = tested on: intracellular amastigotes of L. (V) panamensis; test: as above; format: cell-based, Leishmania (Viannia) panamensis; details: for SI (Selectivity Index = LC50/EC50): LC50 U-937 / EC50 intracellular amastigotes; for Leishmanicidal activity % Inhibition: intracellular amastigotes
Experimental: The leishmanicidal activity of compounds was evaluated on intracellular amastigotes of L. panamensis transfected with the green fluorescent protein gene (MHOM/CO/87/UA140pIR-GFP). Effect of each compound was determined according to the inhibition of the infection evidenced by both decrease of the infected cells and decrease of intracellular parasite load. Briefly, U-937 human cells at a concentration of 3 × 10^5 cells/mL in RPMI 1640 and 0.1 μg/mL of PMA (phorbol-12-myristate-13-acetate) were infected with promastigotes in stationary phase growth in a 15:1 parasites per cell ratio and incubated at 34 °C and 5% CO2 for 3 h. Cells were washed two times with phosphate buffer solution (PBS) to eliminate not internalized parasites. Fresh RPMI 1640 1 mL was added and cells were incubated during 24 h to guarantee multiplication of intracellular parasites.
After 24 h of infection, the culture medium was replaced by fresh culture medium containing each compound at concentrations of 20 μg/mL. After 72 h, the inhibition of the infection progress was determined. Cells were removed from the bottom plate with a trypsin/EDTA (250 mg) solution. Recovered cells were centrifuged at 1100 rpm during 10 min at 4 °C, the supernatant was discarded and cells were washed with 1 mL of cold PBS and centrifuged at 1100 rpm during 10 min at 4 °C. Supernatant was discarded and cells were suspended in 500 μL of PBS and analyzed by flow cytometry (FC 500MPL, Cytomics, Brea, CA, USA) counting 20.000 events. All determinations for each compound and standards were carried out in triplicate, in two isolated experiments. Activity of tested compounds was carried out in parallel with infection progress in culture medium alone and in culture medium with amphotericin B 0.05 μg/mL and meglumine antimoniate (10.0 μg/mL) as control drugs. […] The infected cells were exposed against each concentration of synthesized compounds during 72 h, then, cells were removed and tested by flow cytometry as described before.
Antileishmanial activity was determined according to percentage of infected cells and parasite load obtained for each experimental condition by the cytometer. Percentage of infected cells was determined as the number of positive events by double fluorescence (green for parasites and red for cells) using dotplot analysis. On the other hand, the parasitic load was determined by analysis of mean fluorescence intensity (MFI).
The parasitemia inhibition was calculated by Equation (2), where the MFI of control, corresponds to 100% of parasitemia. In turn, inhibition percentage corresponds to 100% Parasitemia.
The selectivity index (SI), was calculated by dividing the cytotoxic activity and the leishmanicidal activity using the following formula: SI = CL50/CE50.

in vitro = details: human
Experimental: (§1) The cytotoxic activity of the compounds was assessed based on the viability of the human promonocytic cell line U937 (ATCC CRL-1593.2^TM) evaluated by the MTT (3-(4,5-dimethylthiazol-2-yl)-2,5-diphenyltetrazolium bromide) assay. In brief, cells were grown in 96-well cell-culture dishes at a concentration of 100,000 cells/mL in RPMI-1640 supplemented with 10% FBS and the corresponding concentrations of the compounds, starting at 200 µg/mL in duplicate. The cells were incubated at 37 °C with 5% CO2 for 72 h in the presence of the compounds, and then the effect was determined using the MTT assay, incubating at 37 °C for 3 h. The effect of the compounds was determined by measuring the activity of the mitochondrial dehydrogenase by adding 10 µL/well of MTT solution (0.5 mg/mL) and incubating at 37 °C for 3 h. The reaction was stopped by adding a 50% isopropanol solution with 10% sodium dodecyl sulfate for 30 min. Cell viability was determined based on the quantity of formazan produced, according to the optical density (O.D) obtained at 570 nm in a Bio-Rad (Hercules, CA, USA) ELISA instrument. Cultured cells in the absence of extracts were used as viability controls, while meglumine antimoniate and amphotericin B were used as cytotoxicity controls. Assays were performed twice with three replicates per each concentration tested.
(§2) Cytotoxicity was determined according to viability and mortality percentages obtained for each isolated experiment (compounds, amphotericin B, meglumine antimoniate and culture medium alone). The results were expressed as 50 lethal concentrations (LC50), that corresponds to the concentration necessary to eliminate 50% of cells, calculated by Probit analysis. Percentage of viability was calculated by Equation (1), where the optical density (O.D) of control, corresponds to 100% of viability. In turn, mortality percentage corresponds to 100% viability: % Viability = (O.D Exposed cells)/(O.D Control cells) × 100 (1)
(§3) The degree of toxicity was established according to the LC50 value using the following scale: highly toxic: LC50 < 50 μg/mL, toxic: LC50 > 50 to < 100 μg/mL; moderately toxic: LC50 > 100 to < 200 μg/mL and potentially non-toxic: LC50 > 200 μg/mL.

[3] = tested on: axenic and intracellular amastigotes of Leishmania panamensis; parameters: method as in doi:10.1007/s00044-011-9886-8; details: cited from earlier work
[4] = tested on: human promonocytic cell line U937; test: in vitro; details: U-937 cells, MTT, 72 h, Lethal Concentration 50
Experimental: as §1, §2, §3

L. major = tested on: L. major; parameters: method as in PMID 15558191; details: against L. major; read-out: 50% inhibitory concentration (IC50), growth inhibition; cited from earlier work
[5] = at 20 µg/mL, intracellular amastigotes

Compound | inhibition at 20 µg/mL [1, 5] | EC50 [1] | SI (Selectivity Index = LC50/EC50) [2] | CC50 at 72 h (in vitro) | also measured
O=c1ccoc2cc(OCCCCOc3cc(Cl)ccc3Oc3ccc(Cl)cc3Cl)ccc12 [Compound 26, 7-{4-[5-Chloro-2-(2,4-dichlorophenoxy)phenoxy]butoxy}-4H-chromen-4-one] | 91 ± 9.6% | 7.5 µg/mL and 14.9 µM | 2.1 | 15.8 µg/mL and 31.3 µM | 
COc1ccc(/C=C/C(=O)c2ccc(OCCCCCOc3cc(Cl)ccc3Oc3ccc(Cl)cc3Cl)cc2)cc1OC [Compound 9, (2E)-1-[4-({5-[5-Chloro-2-(2,4-dichlorophenoxy)phenoxy]pentyl}oxy)phenyl]-3-(3,4-imethoxyphenyl) prop-2-en-1-one] | 69.5 ± 8.6% | 13.5 µg/mL and 21.1 µM | >14.8 | > 200 µg/mL and > 311 µM | 
Cc1cc(=O)oc2cc(OCCCCCCCCOc3cc(Cl)ccc3Oc3ccc(Cl)cc3Cl)ccc12 [Compound 19, 7-({8-[5-Chloro-2-(2,4-dichlorophenoxy)phenoxy]octyl}oxy)-4-methyl-2H-chromen-2-one] |  |  |  | > 200 µg/mL and > 348 µM | 
Oc1cc(Cl)ccc1Oc1ccc(Cl)cc1Cl [Triclosan] |  |  | 1.3 |  | effective concentration (EC50) [3]: < 24 µg/mL; inhibition at 20 µg/mL [1]: 61.8 ± 5.5%; EC50 ([2]; U-937, 72 h, read-out: Leishmanicidal activity EC50): 18.3 µg/mL and 63.2 µM
Cc1cc(=O)oc2cc(OCCCOc3cc(Cl)ccc3Oc3ccc(Cl)cc3Cl)ccc12 [Compound 16, 7-{3-[5-Chloro-2-(2,4-dichlorophenoxy)phenoxy]propoxy}-4-methyl-2H-chromen-2-one] | < 50% |  |  | > 200 µg/mL and > 397 µM | Leishmanicidal activity % Inhibition ([2]; at 20 µg/mL, 72 h): 34.0 ± 0.3%
3,4-dimethoxy-4'-hydroxychalcone [3,4-Dimethoxy-4'-hydroxychalcone (6), reference compound] |  |  |  |  | Leishmanicidal activity % Inhibition ([2]; at 20 µg/mL, 72 h): 52.4 ± 6.5%; Leishmanicidal activity EC50 ([2]; intracellular amastigotes in U-937 cells, 72 h): 20.03 ± 1.4 µg/mL; EC50 ([2]; intracellular amastigotes in U-937 cells, 72 h, read-out: Leishmanicidal activity EC50 (converted)): 70.5 µM; Cytotoxicity LC50 [4]: 13.9 ± 1.4 µg/mL; CC50 ([4]; read-out: Cytotoxicity LC50): 48.9 µM
C[C@@H]1[C@H](O)[C@@H](C)/C=C/C=C/C=C/C=C/C=C/C=C/C=C/[C@H](O[C@@H]2O[C@H](C)[C@@H](O)[C@H](N)[C@@H]2O)C[C@@H]2O[C@](O)(C[C@@H](O)C[C@@H](O)[C@H](O)CC[C@@H](O)C[C@@H](O)CC(=O)O[C@H]1C)C[C@H](O)[C@H]2C(=O)O [Amphotericin B, reference compound] |  | 0.06 µg/mL and 100 nM |  | 42.1 µg/mL and 45.6 µM | inhibition at 0.05 µg/mL ([1]; Dose employed: 0.05 µg/mL, intracellular amastigotes): 69.1 ± 1.3%
COc1ccc(/C=C/C(=O)c2ccc(OCCCCOc3cc(Cl)ccc3Oc3ccc(Cl)cc3Cl)cc2)cc1OC [Compound 8, (2E)-1-(4-{4-[5-Chloro-2-(2,4-dichlorophenoxy)phenoxy]butoxy}phenyl)-3-(3,4-dimethoxyphenyl) prop-2-en-1-one] | 67.8 ± 19% | 10.2 µg/mL and 16.3 µM | >19.6 | > 200 µg/mL and > 319 µM | 
meglumine antimoniate [Sb(V), reference compound] |  |  |  |  | Leishmanicidal activity % Inhibition ([2]; Dose employed: 10 µg/mL, 72 h): 79.4 ± 2.1 ^h %; Cytotoxicity LC50 [4]: 495.9 ± 55.6 µg/mL
Cc1cc(=O)oc2cc(OCCCCCOc3cc(Cl)ccc3Oc3ccc(Cl)cc3Cl)ccc12 [Compound 18, 7-({5-[5-Chloro-2-(2,4-dichlorophenoxy)phenoxy]pentyl}oxy)-4-methyl-2H-chromen-2-one] |  |  |  | > 200 µg/mL and > 376 µM | 
Cc1cc(=O)oc2cc(O)ccc12 [7-Hydroxy-4-methylcoumarin (11), 7-hydroxy-4-methylcoumarin, reference compound] | 15.3 ± 0.1% |  |  |  | 
COc1ccc(/C=C/C(=O)c2ccc(OCCCCCCCCOc3cc(Cl)ccc3Oc3ccc(Cl)cc3Cl)cc2)cc1OC [Compound 10, (2E)-1-[4-({8-[5-Chloro-2-(2,4-dichlorophenoxy)phenoxy]octyl}oxy)phenyl]-3-(3,4-dimethoxyphenyl) prop-2-en-1-one] |  |  |  | > 200 µg/mL and > 293 µM | 
O=c1ccoc2cc(OCCCOc3cc(Cl)ccc3Oc3ccc(Cl)cc3Cl)ccc12 [Compound 25, 7-{3-[5-Chloro-2-(2,4-dichlorophenoxy)phenoxy]propoxy}-4H-chromen-4-one] | 94.4 ± 2.9% | 2.7 µg/mL and 5.5 µM | 2.4 | 6.4 µg/mL and 13.1 µM | 
O=c1ccoc2cc(O)ccc12 [7-Hydroxychromone (20), 7-hydroxychromone, reference compound] | 14.8 ± 0.9% |  |  |  | 
O=c1ccoc2cc(OCCCCCCCCOc3cc(Cl)ccc3Oc3ccc(Cl)cc3Cl)ccc12 [Compound 28, 7-({8-[5-Chloro-2-(2,4-dichlorophenoxy)phenoxy]octyl}oxy)-4H-chromen-4-one] | 28.4 ± 2.1% |  |  | 80 µg/mL and 143 µM | 
Cc1cc(=O)oc2cc(OCCCCOc3cc(Cl)ccc3Oc3ccc(Cl)cc3Cl)ccc12 [Compound 17, 7-{4-[5-Chloro-2-(2,4-dichlorophenoxy)phenoxy]butoxy}-4-methyl-2H-chromen-2-one] | 57.1 ± 11.5% | 27.5 µg/mL and 53.1 µM | >7.3 | > 200 µg/mL and > 386 µM | 
CC(C)=CCC/C(C)=C/COc1ccc2ccc(=O)oc2c1 [Aurapten, 7-geranyloxycoumarin] |  |  |  |  | IC50 (L. major): 30 µM
COc1ccc(/C=C/C(=O)c2ccc(OCCCOc3cc(Cl)ccc3Oc3ccc(Cl)cc3Cl)cc2)cc1OC [Compound 7, (2E)-1-(4-{3-[5-Chloro-2-(2,4-dichlorophenoxy)phenoxy]propoxy}phenyl)-3-(3,4-dimethoxyphenyl) prop-2-en-1-one] | 67.4 ± 17.2% | 9.4 µg/mL and 15.4 µM | >21.3 | > 200 µg/mL and > 327 µM | 
O=c1ccoc2cc(OCCCCCOc3cc(Cl)ccc3Oc3ccc(Cl)cc3Cl)ccc12 [Compound 27, 7-({5-[5-Chloro-2-(2,4-dichlorophenoxy)phenoxy]pentyl}oxy)-4H-chromen-4-one] | 75.5 ± 1.5% | 16 µg/mL and 30.9 µM | 1.6 | 25.8 µg/mL and 49.8 µM | 
